# Test results as given in publication PMC9296036, “A peptide interfering with the dimerization of oncogenic KITENIN protein and its stability suppresses colorectal tumour progression” (Clinical and Translational Medicine, 2022).
# Ends that are not written are not given here.
# Biological target: T1, KITENIN homodimer (Homo sapiens, UniProt Q8TAA9)
# T1 construct: Lysates of 293T cells expressing full‐length KITENIN‐myc; expressed in transfected cells; host or cells: Caco2
# T1 sequence (Q8TAA9 1-524): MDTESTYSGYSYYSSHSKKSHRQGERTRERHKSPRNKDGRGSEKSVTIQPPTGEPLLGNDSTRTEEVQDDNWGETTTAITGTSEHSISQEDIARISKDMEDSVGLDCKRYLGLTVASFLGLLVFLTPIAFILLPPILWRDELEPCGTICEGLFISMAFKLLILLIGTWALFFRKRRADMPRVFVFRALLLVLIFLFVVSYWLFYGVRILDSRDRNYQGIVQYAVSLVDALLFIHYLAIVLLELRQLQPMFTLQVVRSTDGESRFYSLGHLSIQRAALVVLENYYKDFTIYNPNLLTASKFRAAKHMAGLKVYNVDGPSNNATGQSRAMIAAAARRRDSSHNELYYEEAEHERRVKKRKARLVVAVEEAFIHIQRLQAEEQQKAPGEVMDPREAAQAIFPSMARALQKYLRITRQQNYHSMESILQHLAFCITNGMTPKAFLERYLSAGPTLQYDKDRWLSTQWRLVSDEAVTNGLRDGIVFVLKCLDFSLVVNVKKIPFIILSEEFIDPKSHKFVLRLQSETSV
# Assay: KITENIN homodimerization in Caco2 cells co-expressing KITENIN-V5/Myc (co-immunoprecipitation)
# Format: cell-based
# Description: Antibodies against the following proteins were obtained from the indicated suppliers: Na^+/K^+ ATPase, GFP and tubulin (Santa Cruz Biotechnology); c‐Jun, p‐c‐Jun, ERK, p‐ERK, c‐MET, p‐c‐MET and GST (Cell Signaling Technology); V5, Myc (MBL); HA and β‐actin (Sigma); KITENIN (Atlas); His and RACK1, LC3, p62, Myo10, and eukaryotic elongation factor 2 (eEF2) (Abcam). They were used with appropriate secondary antibodies (Thermo). For transient transfection analyses, Caco2, HCT116 and 293T cells were transfected with various plasmids and harvested for immunoblot analysis 48 h after transfection. For most assays using stable cell lines, mixed polyclonal cells were used to exclude clonal variation. […]
# FIGURE 2 KAI1 C‐terminal interacting tetraspanin (KITENIN) dimerization‐interfering peptide (KDIP) suppresses KITENIN‐induced enhanced cell invasion through the inhibition of the homodimerization of KITENIN. […] After 48 h of treatment, KITENIN transcripts in cells were analysed by the 2^−ΔΔ ^CT method using Q‐PCR. […] Caco2 cells were co‐transfected with KITENIN‐V5/Myc and treated with or without KDIP or scrambled peptide (scr) and were immunoprecipitated with anti‐V5 antibody and detected by indicated antibodies. Numerals indicated a quantification of the MYC bands normalized to the corresponding V5 bands (left panel). […] Numerals indicated a quantification of the bands observed (left panel). […]
sequence,measurement,setting,value
YARVRRRGPRRWRLVSDEAV [KDIP],"inhibition of dimerization and cell invasion caused by KITENIN overexpression, rank among the 7 peptides of the 449-487 region","Caco2 cells co-expressing KITENIN-Myc and KITENIN-V5, co-IP and invasion assay",most effective
same,homodimerization of KITENIN in cells (in words),"Caco2 cells co-transfected with KITENIN-V5/Myc, co-IP",reduced
